Patent US20240052079A1 (OREGON HEALTH & SCIENCE UNIVERSITY, priority 2021, published 2024)
Read-outs that look alike come from different tables or passages of the source.

Legend:
[1] = test system: human dental pulp stem cells (hDPSC); test: Cytotoxicity (MTT) assay, hDPSC; settings: for biocompatibility compared with methacrylates: DPSC; for IC50: read-out: IC50 DPSC
Protocol: (§1) For the cytotoxicity assay, two cell types were tested—odontoblast-like cell line (OD-21) and human dental pulp stem cells (hDPSC) (cat #PT5025, Lonza). […] Cells were kept in an incubator at 37° C., under humidified atmosphere with 5% CO 2 for 2-3 days until confluence was reached. Next, cells were washed with Dulbecco's phosphate buffered saline solution (PBS—Thermo Fisher Scientific) and detached from the culture flasks using 0.05% trypsin/0.02% EDTA (Sigma). Cells were counted using a hemocytometer, then 10,000 cells per well were seeded in 96-well plates for 24 hours (n=6).
(§2) From these stocks, six different concentrated solutions (0.05, 0.1, 0.5, 1, 5 and 10 mM) were prepared in cell culture medium (DMEM for OD-21 and α-MEM for DPSC) and 100 μl per well was used to incubate the cells.
(§3) Next, 200 μl of DMSO was added to each well, plates were gently agitated and the optical density was read at 570 nm and 630 nm in a spectrophotometer (Epoch Microplate Spectrophotometer, BioTek Instruments Inc, Winooski, VT, USA). OD-21 and DPSCs cultured in the medium free from the monomers were used as negative controls. Additionally, since monomer fluorescence could affect the readings, 10 mM samples of each tested monomer were incubated without cells and their absorbance measured to provide a second control (i.e. medium control). The percentage of cell viability was calculated according to the equations:
(§4) ODcells=(OD570 exper−OD630 exper)−(OD570 med contr−OD630 med contr) Equation (3)
(§5) where: ODcell is the absorbance of the remaining cells after exposure; ODexper is the absorbance of the experimental specimens at 570 nm and 630 nm; ODmed contr is the absorbance of the 10 mM solution of each monomer without cells at 570 nm and 630 nm.
(§6) where: CV (%) is percentage of cell viability in relation to the negative control (cells+medium free from the monomers); ODcells neg contr is the cells absorbance of the negative control; ODcells exper is the cells absorbance of the experimental samples.
(§7) The half maximal inhibitory concentration (IC50) of each tested monomer was determined based on the plots of cell inhibition (%) as a function of the monomers concentration (mM) using GraphPad software.

[2] = Cytotoxicity (MTT) assay, OD-21 cells; settings: mouse
Protocol: as §1, §2, §3, §4, §5, §6, §7

[3] = test system: odontoblast-like cell line (OD-21); test: Cytotoxicity (MTT) assay, OD-21 cells; settings: for IC50: read-out: IC50 OD-21; for cell viability, comparison between monomers: OD-21, at 10 and 5 mM
Protocol: as §1, §2, §3, §4, §5, §6, §7

[4] = Hydrolytic degradation kinetics of neat monomers by 1H NMR; format: physicochemical; settings: for Percent remaining monomer: 50 mM monomer, aqueous pH=1, 37° C.; for final degradation percentage: over one month, acidic aqueous conditions (pH=1); for half-life at 50 mM: fit to exponential decay curves, pH=1, read-out: monomer half-life (converted)
Protocol: Neat monomers were subject to the hydrolytic degradation kinetics assay. An aqueous solution (pH=1) was prepared using HPLC grade water and adjusted using 1.0 M HCI. A 50 mM solution of each monomer (n=3) was prepared using 1.0 mL of the acidic aqueous solution. A capillary tube was filled with a 50 mM solution of tetramethylammonium bromide dissolved in D2O and flame sealed. The capillary tube was placed at the bottom on the NMR tube to allow the “locking on” of the instrument and to act as an internal standard. ^1H NMR spectra were obtained using a water suppression by excitation sculpting experiment. After the initial reading, the NMR tubes were flame sealed and incubated at 37° C. During the first week and after 12, 19, and 30 days, the samples were removed from incubation to obtain water suppressed ^1H NMR spectra. To determine the amount of monomer degradation, spectra were first aligned using the ITSD singlet peak and then an integration region unique to a monomer vinyl proton and an integration region unique to a degradation product (methacrylic or acrylic acid) vinyl proton were used to calculate the ratio of monomer to degradation product. […] Additional integration regions on either side of the vinyl region were used to determine the average amount of noise in each spectra. Degradation product values with a signal to noise ratio of less than 10 were considered to show no measurable amount of degradation.

[5] = Partition coefficient (logP); format: physicochemical; settings: values not given; source of logP not stated
Excerpt: When stored dry, all materials had flexural strengths and elastic moduli that were statistically similar to the control. […] […]. The logP determines the likelihood of a compound to partition into water or octanol, with the most hydrophilic compounds presenting lower logP values. Amides are in general more hydrophilic than methacrylates because of the […] of the nitrogen atom in the amide compared to the oxygen in the methacrylate. In addition, the presence of a lone pair of electrons on the nitrogen leads to stabilization of the carbon-nitrogen bond by resonance with the carbonyl. The oxygen in the amide, in turn, assumes a partial negative charge (δ−), making it more prone to function as a hydrogen-bond acceptor. Conversely, the hydrogen of the N-H dipole is partially positively charged (δ+), which renders it a hydrogen-bond donor.

[6] = neat monomer, 24 hours exposure, MTT

| Molecule | IC50 ([1]; Homo sapiens, 24 h) [mM] | IC50 ([3]; Mus musculus, 24 h) [mM] | cell viability, comparison between monomers [3] | Percent remaining monomer ([4]; day 0) [%] | Percent remaining monomer ([4]; day 1) [%] | Percent remaining monomer ([4]; day 2) [%] | Percent remaining monomer ([4]; day 3) [%] | Percent remaining monomer ([4]; day 4) [%] | Percent remaining monomer ([4]; day 5) [%] | Percent remaining monomer ([4]; day 6) [%] | Percent remaining monomer ([4]; day 7) [%] | Percent remaining monomer ([4]; day 12) [%] | Percent remaining monomer ([4]; day 19) [%] | Percent remaining monomer ([4]; day 30) [%] | final degradation percentage [4] [%] | half-life at 50 mM [4] [days] | IC50 [1, 6] [mM] | IC50 [3, 6] [mM] | other results |
| --- | --- | --- | --- | --- | --- | --- | --- | --- | --- | --- | --- | --- | --- | --- | --- | --- | --- | --- | --- |
| C=CC(=O)N(C)CCCN(C)CCCN(C)C(=O)C=C | 0.54 | 4.75 | the lowest cell viability | 100.0 ± 0.0 | 99.8 ± 0.01 | 100.0 ± 0.0 | 100.0 ± 0.0 | 100.0 ± 0.0 | 99.7 ± 0.01 | 100.0 ± 0.0 | 100.0 ± 0.0 | 100.0 ± 0.0 | 99.7 ± 0.3 | 98.7 ± 1.3 | 1.27 |  |  |  | biocompatibility compared with methacrylates ([1]; 5 mM): less biocompatible than the tested methacrylates; viability at 24 h, 5 mM [2]: 24%; viability at 24 h, 10 mM [2]: 12% |
| C=CC(=O)N(C)CCN(CCN(C)C(=O)C=C)CCN(C)C(=O)C=C | 1.07 | 8.02 |  | 100.0 ± 0.0 | 99.8 ± 0.2 | 99.8 ± 0.2 | 99.3 ± 0.7 | 99.2 ± 0.9 | 99.1 ± 0.7 | 99.0 ± 1.0 | 98.7 ± 1.3 |  | 96.7 ± 1.8 | 93.7 ± 0.7 | 6.29 | 350 |  |  | biocompatibility compared with methacrylates ([1]; 0.5 mM): less biocompatible than the tested methacrylates; logP, ranking among tested monomers [5]: lower logP |
| C=CC(=O)NN1CCCN(NC(=O)C=C)CC1 [BAADA, N,N′-bis(acrylamido) 1,4-diazepane] | 3.65 | 9.98 |  | 100.0 ± 0.0 | 100.0 ± 0.0 | 100.0 ± 0.0 | 100.0 ± 0.0 | 99.8 ± 0.2 |  | 100.0 ± 0.0 |  | 99.6 ± 0.4 | 92.3 ± 0.7 | 98.9 ± 1.2 | 1.13 |  |  |  |  |
| C=C(C)C(=O)OCCO [HEMA, 2-hydroxyethyl methacrylate, reference compound] | 6.87 | 15.4 | the highest | 99.2 ± 0.6 | 93.1 ± 0.04 | 87.6 ± 0.02 | 81.3 ± 0.02 | 76.5 ± 0.01 | 71.3 ± 0.02 | 66.1 ± 0.02 | 61.9 ± 0.01 | 43.1 ± 0.02 | 25.2 ± 0.02 | 10.6 ± 0.1 | 89.38 | 9.5 |  |  |  |
| N,N-Diethyl-1,3-bis(acrylamido)propane [DEBAAP, reference compound] |  |  |  |  |  |  |  |  |  |  |  |  |  |  |  |  | 8.43 | 7.11 |  |
| urethane dimethacrylate [UDMA, reference compound] |  |  |  |  |  |  |  |  |  |  |  |  |  |  |  |  | 10.3 | 7.94 |  |
